Results from US20200393473A1, “EZETIMIBE METABOLITE AS A NON-INVASIVE BIOMARKER FOR NON-ALCOHOLIC STEATOHEPATITIS (NASH)” (ARIZONA BOARD OF REGENTS ON BEHALF OF THE UNIVERSITY OF …, priority 2018, published 2020).

Key:
[1] = normal healthy individuals, 10 mg oral dose of EZE; cited from earlier work
[2] = Disposition of EZE and EZE-Gluc in plasma, bile and urine of control and MCD (NASH) rats, LC-MS/MS; assay type: in vivo, rat; conditions: NASH animal model (MCD rats) vs control, oral EZE
Protocol: Ezetimibe was orally administered to control and MCD rats. Blood and bile were collected and EZE and ZE-Guc were measured by LC-MS/MS. […] The solid and open arrows indicate where NASH caused an increase and decrease, respectively, in the amount of compound in the biological fluid indicated.
Ezetimibe was intravenously administered to control and MCD rats. Blood and bile were collected and EZE and EZE-Guc were measured by LC-MS/MS. […] The solid arrows indicate where NASH caused an increase in the amount of compound in the biological fluid indicated.

[3] = EZE-Gluc in plasma and urine in NASH compared with healthy or steatotic livers; assay type: in vivo; conditions: NASH vs healthy or steatotic livers
Protocol: Furthermore, the inventive technical features of the present invention contributed to a surprising result. A surprising and unexpected result can occur when patients are administered EZE.

| Compound | average peak blood concentration [1] | biliary elimination [2] | plasma retention [2] | increase in plasma and urine [3] |
| --- | --- | --- | --- | --- |
| O=C1[C@H](CC[C@H](O)c2ccc(F)cc2)[C@@H](c2ccc(O)cc2)N1c1ccc(F)cc1 [EZE, ezetimibe] | 4.5 ng/mL | – | – | – |
| O=C(O)[C@H]1O[C@@H](Oc2ccc([C@@H]3[C@@H](CC[C@H](O)c4ccc(F)cc4)C(=O)N3c3ccc(F)cc3)cc2)[C@H](O)[C@@H](O)[C@@H]1O [EZE-Gluc, ezetimibe-glucuronide] | 92 ng/mL | Decreased Biliary Elimination | Increased Plasma Retention | ≤ 100 fold |
